Holding throughout (type): biochemical
Test [1] has as its target T1, PDGF receptor tyrosine kinase (mouse PDGF-β) (Mus musculus, UniProt P05622).
T1 construct: PCR primers are designed to amplify a fragment of DNA that codes for the intracellular tyrosine kinase domain; made in house; host or cells: Sf9 insect cells (baculovirus), cell lysate
Nature of the test: PDGFr tyrosine kinase assay (poly glutamate-tyrosine phosphorylation). To be noted: Table 1; 10 minutes at 25° C. The method, then:
Platelet Derived Growth Factor Receptor (PDGFr) and Fibroblast Growth Factor Receptor (FGFr)
Full length cDNAs for the mouse PDGF-β and human FGF-1 (flg) receptor tyrosine kinases were obtained from J. Escobedo and are prepared as described in J. Biol. Chem., 262: 1482-1487 (1991). PCR primers are designed to amplify a fragment of DNA that codes for the intracellular tyrosine kinase domain. The fragment is melded into a baculovirus vector, cotransfected with AcMNPV DNA, and the recombinant virus isolated. SF9 insect cells are infected with the virus to overexpress the protein, and the cell lysate is used for the assay.
The assay is performed in 96-well plates (100 μL/incubation/well), and conditions are optimized to measure the incorporation of ^32 p from [γ^32 P]-ATP into a glutamate-tyrosine copolymer substrate. Briefly, to each well is added 82.5 μL of incubation buffer containing 25 mM Hepes (pH 7.0), 150 mM NaCl, 0.1% Triton X-100, 0.2 mM PMSF, 0.2 mM sodium vanadate, 10 mM manganese chloride, and 750 μg/mL of poly (4:1) glutamate-tyrosine followed by 2.5 μL of inhibitor and 5 μL of enzyme lysate (7.5 μg/μL FGFR-TK or 6.0 μg/μL PDGFR-TK) to initiate the reaction. Following a 10 minute incubation at 25° C., 10 μL of [γ^32 P]-ATP (0.4 μCi plus 50 μM ATP) is added to each well and samples are incubated for an additional 10 minutes at 25° C. The reaction is terminated by the addition of 100 μL of 30% trichloroacetic acid (TCA) containing 20 mM sodium pyrophosphate and precipitation of material onto glass fiber filter mats (Wallac). Filters are washed 3 times with 15% TCA containing 100 mM sodium pyrophosphate and the radioactivity retained on the filters counted in a Wallac 1250 Betaplate reader. Nonspecific activity is defined as radioactivity retained on the filters following incubation of samples with buffer alone (no enzyme). Specific enzymatic activity is defined as total activity (enzyme plus buffer) minus nonspecific activity.

In another test the target is T2, c-Src (Homo sapiens, UniProt P12931).
T2 construct: made in house; host or cells: baculovirus infected insect cells
Nature of the test: c-Src kinase assay. To be noted: Table 1; 5 μM ATP, room temperature, 10 minutes. The protocol: c-Src kinase is purified from baculovirus infected insect cell lysates using an antipeptide monoclonal antibody directed against the N-terminal 2-17 amino acids as described previously by Fry, et al, Anticancer Drug Design. 9: 331-351 (1994). […] At the end of the lysate incubation, the beads are rinsed 3 times in lysis buffer, resuspended in lysis buffer containing 10% glycerol, and frozen. These latex beads are thawed, rinsed 3 times in assay buffer which is comprised of 40 mM tris pH 7.5, 5 mM magnesium chloride, and suspended in the same buffer. […] The reaction is started at room temperature by addition of the ATP and quenched 10 minutes later by the addition of 125 μL of 30% TCA, 0.1 M sodium pyrophosphate for 15 minutes on ice. The plate is then filtered and the wells washed with two 250-μL aliquots of 15% TCA, 0.1 M pyrophosphate. The filters are punched, counted in a liquid scintillation counter, and the data examined for inhibitory activity in comparison to a known inhibitor such as erbstatin. The method is described more fully in J. Med. Chem., 37: 598-609 (1994).

The target in test [2] is T3, Human EGF receptor tyrosine kinase (Homo sapiens, UniProt P00533).
T3 construct: Human EGF receptor tyrosine kinase is isolated from A431 human epidermoid carcinoma cells; endogenous in cells; host or cells: A431 human epidermoid carcinoma cells (detergent lysate, fast Q sepharose fractions)
Nature of the test: EGFr tyrosine kinase assay. To be noted: Table 1; 10 μM ATP, 25° C., 10 minutes.

Another test addresses T4, insulin receptor (INSr) (Homo sapiens, UniProt P06213).
T4 construct: An assay using the intracellular kinase domains of insulin receptor (INSr) is performed
Nature of the test: Insulin receptor kinase assay. To be noted: Table 1; as for EGF receptor with 10 mM manganese chloride.

In test [3] the target is T5, FGF receptor tyrosine kinase (human FGF-1 (flg)) (Homo sapiens, UniProt P11362).
T5 construct: PCR primers are designed to amplify a fragment of DNA that codes for the intracellular tyrosine kinase domain; made in house; host or cells: Sf9 insect cells (baculovirus), cell lysate
Nature of the test: FGFr tyrosine kinase assay (poly glutamate-tyrosine phosphorylation). The note with it: Table 1; 10 minutes at 25° C. The protocol:
Platelet Derived Growth Factor Receptor (PDGFr) and Fibroblast Growth Factor Receptor (FGFr) Full length cDNAs for the mouse PDGF-β and human FGF-1 (flg) receptor tyrosine kinases were obtained from J. Escobedo and are prepared as described in J. Biol. Chem., 262: 1482-1487 (1991). PCR primers are designed to amplify a fragment of DNA that codes for the intracellular tyrosine kinase domain. The fragment is […] into a baculovirus vector, cotransfected with AcMNPV DNA, and the recombinant virus isolated. SF9 insect cells are infected with the virus to overexpress the protein, and the cell lysate is used for the […] and FGFr The assay is performed in 96-well plates (100 μL/incubation/well), and conditions are optimized to measure the incorporation of ^32 p from [γ^32 P]-ATP into a glutamate-tyrosine copolymer substrate. […] The reaction is terminated by the addition of 100 μL of 30% trichloroacetic acid (TCA) containing 20 mM sodium pyrophosphate and precipitation of material onto glass fiber filter mats (Wallac). Filters are washed 3 times with 15% TCA containing 100 mM sodium pyrophosphate and the radioactivity retained on the filters counted in a Wallac 1250 Betaplate reader. Nonspecific activity is defined as radioactivity retained on the filters following incubation of samples with buffer alone (no enzyme). Specific enzymatic activity is defined as total activity (enzyme plus buffer) minus nonspecific activity.

Structures are written as SMILES. Structures can show the parent of a compound that is named as a salt.

T2 sequence (P12931 whole entry, species assumed): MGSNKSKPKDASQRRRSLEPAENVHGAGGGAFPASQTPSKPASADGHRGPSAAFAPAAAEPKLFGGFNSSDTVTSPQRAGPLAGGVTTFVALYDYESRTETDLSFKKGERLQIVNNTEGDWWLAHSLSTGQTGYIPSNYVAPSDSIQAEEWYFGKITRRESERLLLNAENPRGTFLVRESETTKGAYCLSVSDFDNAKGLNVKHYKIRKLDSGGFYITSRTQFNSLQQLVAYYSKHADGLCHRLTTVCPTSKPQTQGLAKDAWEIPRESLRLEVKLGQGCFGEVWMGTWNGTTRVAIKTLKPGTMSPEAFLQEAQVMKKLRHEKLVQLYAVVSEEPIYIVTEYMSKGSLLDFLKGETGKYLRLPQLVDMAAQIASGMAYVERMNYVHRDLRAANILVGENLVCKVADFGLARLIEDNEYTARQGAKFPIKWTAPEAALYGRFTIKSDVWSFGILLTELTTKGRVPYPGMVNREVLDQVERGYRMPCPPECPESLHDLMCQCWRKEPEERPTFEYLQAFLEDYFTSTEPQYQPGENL
T4 sequence (P06213 1023-1298 limits assumed, species assumed): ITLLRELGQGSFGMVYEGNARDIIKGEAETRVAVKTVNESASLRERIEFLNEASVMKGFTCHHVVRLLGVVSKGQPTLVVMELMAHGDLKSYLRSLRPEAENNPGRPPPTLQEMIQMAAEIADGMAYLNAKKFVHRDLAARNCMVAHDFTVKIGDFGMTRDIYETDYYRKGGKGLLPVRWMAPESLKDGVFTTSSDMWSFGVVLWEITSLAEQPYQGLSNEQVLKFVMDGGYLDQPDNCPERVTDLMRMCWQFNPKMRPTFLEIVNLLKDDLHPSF
T5 sequence (P11362 478-767 limits assumed): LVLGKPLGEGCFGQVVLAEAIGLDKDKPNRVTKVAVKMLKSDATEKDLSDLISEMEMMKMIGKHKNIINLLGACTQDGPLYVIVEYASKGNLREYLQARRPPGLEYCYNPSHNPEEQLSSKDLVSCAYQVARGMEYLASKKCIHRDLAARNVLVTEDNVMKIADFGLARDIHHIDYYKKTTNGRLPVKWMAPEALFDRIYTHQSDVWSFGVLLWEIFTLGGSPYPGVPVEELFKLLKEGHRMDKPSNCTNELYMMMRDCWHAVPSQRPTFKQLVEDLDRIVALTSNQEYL
T1 sequence (P05622 599-961 limits assumed): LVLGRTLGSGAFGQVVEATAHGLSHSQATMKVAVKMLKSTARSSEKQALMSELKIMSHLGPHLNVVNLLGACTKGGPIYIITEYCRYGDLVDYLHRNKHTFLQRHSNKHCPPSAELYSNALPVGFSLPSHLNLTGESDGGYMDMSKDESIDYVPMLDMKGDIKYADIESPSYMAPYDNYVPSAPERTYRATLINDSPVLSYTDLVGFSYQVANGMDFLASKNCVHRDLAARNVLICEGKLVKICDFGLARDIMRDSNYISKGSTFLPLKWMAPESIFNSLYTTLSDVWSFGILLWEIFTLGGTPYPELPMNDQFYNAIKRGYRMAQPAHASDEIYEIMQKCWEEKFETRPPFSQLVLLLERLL
T3 sequence (P00533 25-1210): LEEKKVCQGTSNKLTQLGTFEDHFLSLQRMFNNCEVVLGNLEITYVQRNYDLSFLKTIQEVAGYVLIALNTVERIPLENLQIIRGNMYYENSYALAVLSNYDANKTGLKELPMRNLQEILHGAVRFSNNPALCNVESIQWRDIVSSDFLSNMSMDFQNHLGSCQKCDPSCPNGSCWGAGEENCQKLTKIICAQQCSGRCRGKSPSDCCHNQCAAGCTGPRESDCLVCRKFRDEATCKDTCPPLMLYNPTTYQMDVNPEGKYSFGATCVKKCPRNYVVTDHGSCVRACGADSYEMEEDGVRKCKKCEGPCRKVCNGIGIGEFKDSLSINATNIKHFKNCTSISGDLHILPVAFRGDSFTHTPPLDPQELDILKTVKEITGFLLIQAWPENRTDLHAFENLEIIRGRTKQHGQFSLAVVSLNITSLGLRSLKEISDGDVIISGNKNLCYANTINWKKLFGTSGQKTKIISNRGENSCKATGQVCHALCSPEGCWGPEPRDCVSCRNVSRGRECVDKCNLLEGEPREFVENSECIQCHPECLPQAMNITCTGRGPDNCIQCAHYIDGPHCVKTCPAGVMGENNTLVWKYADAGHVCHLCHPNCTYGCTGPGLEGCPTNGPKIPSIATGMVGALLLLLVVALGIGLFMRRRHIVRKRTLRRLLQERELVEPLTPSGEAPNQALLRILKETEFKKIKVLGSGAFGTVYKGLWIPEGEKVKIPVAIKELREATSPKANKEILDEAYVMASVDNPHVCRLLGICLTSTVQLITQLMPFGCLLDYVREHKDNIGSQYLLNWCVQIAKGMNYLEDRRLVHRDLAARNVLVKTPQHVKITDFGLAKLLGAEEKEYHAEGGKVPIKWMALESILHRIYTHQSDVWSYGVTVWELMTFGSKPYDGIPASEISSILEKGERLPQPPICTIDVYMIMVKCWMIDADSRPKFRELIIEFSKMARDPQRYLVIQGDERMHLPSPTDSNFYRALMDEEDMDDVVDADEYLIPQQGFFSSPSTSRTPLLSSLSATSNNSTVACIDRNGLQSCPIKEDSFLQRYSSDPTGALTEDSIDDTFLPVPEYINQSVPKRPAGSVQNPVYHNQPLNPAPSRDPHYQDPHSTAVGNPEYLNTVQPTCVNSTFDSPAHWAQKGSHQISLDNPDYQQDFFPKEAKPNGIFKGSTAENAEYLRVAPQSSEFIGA

For `Oc1ccc2ncn(-c3ccccc3)c2c1` [Example 41, 6-Hydroxy-1-phenylbenzimidazole Hydrochloride], the IC50 in test [1] is 2.1 µM; against c-Src, more than 50 µM; in test [2], more than 50 µM; on insulin receptor (INSr), less than 50 µM.

As for `c1ccc(-n2cnc3ccccc32)cc1` [Example 1, 1-Phenylbenzimidazole], the 50% inhibitory concentration (IC50) (in test [2]; against insulin receptor (INSr)) was more than 50 µM each time.

`NCCOc1ccc2c(c1)ncn2-c1ccccc1` [Example 35, 5-(2-Aminoethoxy)-1-phenylbenzimidazole Dihydrochloride]: the IC50 in test [1] is 0.7 µM; in test [3], 27 µM; against c-Src, less than 50 µM; against insulin receptor (INSr), more than 50 µM.

Take `c1ccc(-n2cnc3cnccc32)cc1` [Example 22, 1-Phenylimidazo-1H-imidazol[4,5-c]pyridine Hydrochloride]: the IC50 in test [1] was 10 µM; in test [3], 49 µM; on c-Src, more than 50 µM; against insulin receptor (INSr) it was more than 50 µM.

`CN(C)CCOc1ccc2c(c1)ncn2-c1ccccc1` [Example 36, 5-[2-(N,N-Dimethylamino)ethoxy]-1-phenylbenzimidazole Dihydrochloride]: the IC50 in test [1] was 1.5 µM; in test [3], 45 µM; at c-Src, 29 µM; against insulin receptor (INSr), more than 50 µM.

For the molecule `C=CCOc1ccc2c(c1)ncn2-c1ccccc1` [Example 32, 5-Allyloxy-1-phenylbenzimidazole Hydrochloride], the IC50 in test [1] is 0.6 µM; in test [3], 35 µM; at c-Src, more than 50 µM; at insulin receptor (INSr), more than 50 µM.

Turning to `Nc1ccc2c(c1)ncn2-c1ccccc1` [Example 19, 5-Amino-1-phenylbenzimidazole], the IC50 in test [1] is 2.7 µM; in test [3], 36 µM; on c-Src it was more than 50 µM; in test [2], more than 50 µM; at insulin receptor (INSr), more than 50 µM.

In the case of `Oc1ccc2c(c1)ncn2-c1ccccc1` [Example 14, 5-Hydroxy-1-phenylbenzimidazole], the IC50 was 0.4 µM in test [1], 6.4 µM in test [3], more than 50 µM in test [2] and more than 50 µM on insulin receptor (INSr).

Take `COC(=O)c1ccc2c(c1)ncn2-c1ccccc1` [Example 17, Methyl 1-Phenylbenzimidazole-5-carboxylate]: the IC50 was 0.8 µM in test [1]; 6.6 µM in test [3]; more than 50 µM against c-Src; more than 50 µM in test [2]; more than 50 µM on insulin receptor (INSr).

In the case of `COc1cc2ncn(-c3ccccc3)c2cc1CO` [Example 53, 6-Hydroxymethyl-5-methoxy-1-phenylbenzimidazole Hydrochloride], the IC50 is 0.4 µM in test [1], 12 µM in test [3], 50 µM on c-Src and more than 50 µM against insulin receptor (INSr).

As to `OCc1ccc2c(c1)ncn2-c1ccccc1` [Example 26, 5-(Hydroxymethyl)-1-phenylbenzimidazole], the IC50 in test [1] was 11.7 µM; in test [3], more than 50 µM; against c-Src it was more than 50 µM; in test [2], less than 50 µM; at insulin receptor (INSr) it was more than 50 µM.

Regarding `COC(=O)c1ccc2ncn(-c3ccccc3)c2c1` [Example 43, Methyl 1-phenylbenzimidazole-6-carboxylate Hydrochloride], the IC50 in test [1] is 13 µM; at c-Src, more than 50 µM; in test [2], more than 50 µM; on insulin receptor (INSr), more than 50 µM.

For the molecule `COC(=O)c1ccc(-n2cnc3ccccc32)cc1` [Example 7, 1-(4-Carbomethoxyphenyl)benzimidazole], the IC50 in test [1] is 7.2 µM; in test [3], more than 50 µM; at c-Src, more than 50 µM; in test [2], more than 50 µM; against insulin receptor (INSr), more than 50 µM.

In the case of `Oc1cccc(-n2cnc3ccccc32)c1` [Example 2, 1-(3-Hydroxyphenyl)benzimidazole Hydrochloride], the IC50 was 3.8 µM in test [1], 50 µM in test [3], more than 50 µM against c-Src and more than 50 µM at insulin receptor (INSr).

`Cc1ccc2c(c1)ncn2-c1ccccc1` [Example 12, 5-Methyl-1-phenylbenzimidazole Hydrochloride]: the IC50 in test [1] is 4.4 µM; in test [3], more than 50 µM; at c-Src, more than 50 µM; in test [2], 50 µM; at insulin receptor (INSr), more than 50 µM.

For the molecule `Oc1ccc(-n2cnc3ccccc32)cc1` [Example 6, 1-(4-Hydroxyphenyl)benzimidazole Hydrochloride], the IC50 is 1.8 µM in test [1], 5.8 µM in test [3], more than 50 µM against c-Src and more than 50 µM on insulin receptor (INSr).

Consider `NC(=O)c1ccc2c(c1)ncn2-c1ccccc1` [Example 18, 1-Phenylbenzimidazole-5-carboxamide Hydrochloride], for which the IC50 is 1.6 µM in test [1]; 9.9 µM in test [3]; less than 50 µM against c-Src; more than 50 µM in test [2]; more than 50 µM against insulin receptor (INSr).

`COc1ccc2c(c1)ncn2-c1cccs1` [Example 55, 5-Methoxy-1-(2-thienyl)benzimidazole Hydrochloride]: the IC50 in test [1] was 2.5 µM; in test [3], 5.3 µM; at c-Src, more than 50 µM; against insulin receptor (INSr) it was more than 50 µM.

On to `c1ccc2c(c1)ncn2-c1ccncc1` [Example 10, 1-(4-Pyridinyl)benzimidazole dihydrochloride], for which the IC50 in test [1] was 12.3 µM; in test [3] it was 50 µM; against c-Src, more than 50 µM; against insulin receptor (INSr), more than 50 µM.

Regarding `Nc1cccc(-n2cnc3ccccc32)c1` [Example 3, 1-(3-Aminophenyl)benzimidazole], the IC50 in test [1] was 3.6 µM; against c-Src, more than 50 µM; in test [2], more than 50 µM; at insulin receptor (INSr), more than 50 µM.

Take `CC(=O)Nc1ccc2c(c1)ncn2-c1ccccc1` [Example 23, 5-Acetamido-1-phenylbenzimidazole Hydrochloride]: the IC50 in test [1] was 3.3 µM; in test [3] it was 32 µM; against c-Src it was less than 50 µM; on insulin receptor (INSr), more than 50 µM.

For the molecule `O=Cc1cccc(-n2cnc3ccccc32)c1` [Example 4, 1-(3-Formylphenyl)benzimidazole Hydrochloride], the IC50 was 6.8 µM in test [1], more than 50 µM in test [3], more than 50 µM against c-Src and more than 50 µM against insulin receptor (INSr).

For the origin of these results see US5990146A, “Benzimidazoles for inhibiting protein tyrosine kinase mediated cellular proliferation” (Warner-Lambert Company, priority 1998, dated 1999).
